Measured values as given in paper PMC8617627, “Novel DYRK1A Inhibitor Rescues Learning and Memory Deficits in a Mouse Model of Down Syndrome” (Pharmaceuticals, 2021).
Where two headings read alike, the source gives them in different places.

Legend:
Assay in all cases: Kinase profile (33P ATP filter binding)
Type in all cases: biochemical
Conditions in all cases: read-out: Remaining protein kinase activity
[1] = biological target: PIM3 (Homo sapiens, UniProt Q86V86)
Experimental: (§1) The compounds were diluted to the appropriate concentration. The compounds were added to a “mother plate” consisting of samples, controls, and blanks. These serve as the source for “daughter plates” which are stored at −20 °C until assay initiation. Protein Kinases: Enzyme/Substrate mixture was added to the compound, and the compounds were incubated for five minutes at room temperature (RT). ^33P ATP was added to the compounds to initiate the assay. Orthophosphoric acid was added to the compounds to halt the assay. Assay components were harvested onto P81 filter plates, filter plates were air-dried, scintillation fluid was added to plates, and counts were read on a Topcount NXT. A mean percentage activity was calculated.

[2] = biological target: T1, BRSK1 (Homo sapiens, UniProt Q8TDC3)
T1 sequence (Q8TDC3 1-778): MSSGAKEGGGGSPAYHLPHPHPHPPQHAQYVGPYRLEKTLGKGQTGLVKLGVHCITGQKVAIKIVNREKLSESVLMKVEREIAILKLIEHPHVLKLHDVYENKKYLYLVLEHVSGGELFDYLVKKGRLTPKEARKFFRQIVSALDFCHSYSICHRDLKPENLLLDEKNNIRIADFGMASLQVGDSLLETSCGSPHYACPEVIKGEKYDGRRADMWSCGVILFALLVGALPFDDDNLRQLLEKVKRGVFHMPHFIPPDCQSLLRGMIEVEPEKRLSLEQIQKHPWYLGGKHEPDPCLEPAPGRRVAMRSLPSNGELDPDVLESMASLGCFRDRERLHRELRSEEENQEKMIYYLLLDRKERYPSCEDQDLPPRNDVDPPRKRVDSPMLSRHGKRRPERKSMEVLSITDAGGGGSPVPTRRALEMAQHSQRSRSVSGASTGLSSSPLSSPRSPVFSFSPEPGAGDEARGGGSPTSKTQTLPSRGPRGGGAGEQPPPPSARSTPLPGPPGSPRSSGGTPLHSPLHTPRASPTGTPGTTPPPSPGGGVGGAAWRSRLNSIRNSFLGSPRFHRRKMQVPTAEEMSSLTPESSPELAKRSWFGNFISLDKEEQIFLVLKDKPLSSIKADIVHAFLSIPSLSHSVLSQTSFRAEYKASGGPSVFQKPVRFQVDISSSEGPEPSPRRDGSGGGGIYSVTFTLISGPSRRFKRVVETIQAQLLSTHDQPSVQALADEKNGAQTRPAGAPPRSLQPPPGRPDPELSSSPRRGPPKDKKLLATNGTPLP
Experimental: as §1

[3] = biological target: T2, IKKe (Homo sapiens, UniProt Q14164)
T2 sequence (Q14164 1-716): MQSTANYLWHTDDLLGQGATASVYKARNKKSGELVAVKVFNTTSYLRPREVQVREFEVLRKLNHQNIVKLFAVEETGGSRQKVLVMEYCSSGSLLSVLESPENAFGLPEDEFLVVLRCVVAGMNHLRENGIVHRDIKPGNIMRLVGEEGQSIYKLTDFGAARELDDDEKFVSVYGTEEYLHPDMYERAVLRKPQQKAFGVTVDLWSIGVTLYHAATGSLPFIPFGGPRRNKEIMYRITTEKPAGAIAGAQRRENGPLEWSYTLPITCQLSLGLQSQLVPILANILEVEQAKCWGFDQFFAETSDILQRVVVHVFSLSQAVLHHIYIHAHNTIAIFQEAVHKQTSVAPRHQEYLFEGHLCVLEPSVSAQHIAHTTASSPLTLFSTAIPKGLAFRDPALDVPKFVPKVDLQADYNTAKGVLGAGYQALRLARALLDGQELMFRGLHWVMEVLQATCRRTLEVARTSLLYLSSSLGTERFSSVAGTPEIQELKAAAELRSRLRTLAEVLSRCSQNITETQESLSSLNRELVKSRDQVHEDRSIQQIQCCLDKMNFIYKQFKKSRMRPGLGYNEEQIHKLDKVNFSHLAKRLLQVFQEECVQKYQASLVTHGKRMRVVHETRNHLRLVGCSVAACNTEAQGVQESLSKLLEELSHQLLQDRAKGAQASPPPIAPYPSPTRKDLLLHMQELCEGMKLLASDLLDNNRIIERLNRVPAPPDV
Experimental: as §1

[4] = biological target: ERK2 (Homo sapiens, UniProt P28482)
Chain of ERK2 (P28482 whole entry, species assumed): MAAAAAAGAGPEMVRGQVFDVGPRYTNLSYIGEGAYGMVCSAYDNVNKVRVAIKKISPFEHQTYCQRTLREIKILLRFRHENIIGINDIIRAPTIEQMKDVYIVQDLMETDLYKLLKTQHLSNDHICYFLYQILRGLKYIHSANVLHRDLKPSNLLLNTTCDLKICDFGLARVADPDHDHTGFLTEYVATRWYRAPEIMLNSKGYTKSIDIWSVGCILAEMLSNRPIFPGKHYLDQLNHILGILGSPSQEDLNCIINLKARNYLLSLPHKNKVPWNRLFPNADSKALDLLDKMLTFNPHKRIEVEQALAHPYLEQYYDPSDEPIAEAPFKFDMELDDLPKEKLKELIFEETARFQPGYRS
Experimental: as §1

[5] = biological target: T3, EPH-B3 (Homo sapiens, UniProt P54753)
T3 sequence (P54753 34-998): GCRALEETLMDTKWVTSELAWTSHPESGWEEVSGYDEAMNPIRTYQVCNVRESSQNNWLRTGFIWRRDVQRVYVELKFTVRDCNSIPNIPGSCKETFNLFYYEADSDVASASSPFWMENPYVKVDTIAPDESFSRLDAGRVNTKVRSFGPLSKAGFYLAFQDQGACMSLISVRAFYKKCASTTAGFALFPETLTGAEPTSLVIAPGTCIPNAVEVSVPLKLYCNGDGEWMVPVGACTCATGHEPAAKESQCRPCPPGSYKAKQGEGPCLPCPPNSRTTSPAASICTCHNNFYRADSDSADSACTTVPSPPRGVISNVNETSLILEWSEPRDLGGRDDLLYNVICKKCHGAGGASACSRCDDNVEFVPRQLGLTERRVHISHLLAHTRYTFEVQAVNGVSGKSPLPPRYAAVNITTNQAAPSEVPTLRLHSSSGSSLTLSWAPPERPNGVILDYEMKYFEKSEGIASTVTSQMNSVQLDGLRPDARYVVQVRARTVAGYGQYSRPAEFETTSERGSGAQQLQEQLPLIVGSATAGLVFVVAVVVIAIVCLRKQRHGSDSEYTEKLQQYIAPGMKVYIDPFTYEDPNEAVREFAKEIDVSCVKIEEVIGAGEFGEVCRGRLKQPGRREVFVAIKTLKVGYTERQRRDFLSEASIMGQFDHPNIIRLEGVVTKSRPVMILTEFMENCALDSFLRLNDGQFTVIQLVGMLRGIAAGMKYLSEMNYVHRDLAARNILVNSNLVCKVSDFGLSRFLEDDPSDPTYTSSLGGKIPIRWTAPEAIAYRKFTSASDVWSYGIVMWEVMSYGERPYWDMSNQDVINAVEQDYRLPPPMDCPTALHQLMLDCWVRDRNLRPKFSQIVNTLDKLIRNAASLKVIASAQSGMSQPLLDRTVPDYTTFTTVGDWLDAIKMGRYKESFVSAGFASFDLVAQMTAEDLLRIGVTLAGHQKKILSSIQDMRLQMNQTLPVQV
Experimental: as §1

SMILES	remaining activity at 1 µM ([1]; PIM3, 1 μM) [%]	remaining activity at 100 µM ([1]; PIM3, 100 μM) [%]	remaining activity at 1 µM ([2]; BRSK1, 1 μM) [%]	remaining activity at 100 µM ([2]; BRSK1, 100 μM) [%]	remaining activity at 1 µM ([3]; IKKe, 1 μM) [%]	remaining activity at 100 µM ([3]; IKKe, 100 μM) [%]	remaining activity at 1 µM ([4]; ERK2, 1 μM) [%]	remaining activity at 100 µM ([4]; ERK2, 100 μM) [%]	remaining activity at 1 µM ([5]; EPH-B3, 1 μM) [%]	remaining activity at 100 µM ([5]; EPH-B3, 100 μM) [%]	remaining activity at 1 µM [1] [%]	remaining activity at 100 µM [1] [%]	remaining activity at 1 µM [2] [%]	remaining activity at 100 µM [2] [%]	remaining activity at 1 µM [3] [%]	remaining activity at 100 µM [3] [%]	remaining activity at 1 µM [4] [%]	remaining activity at 100 µM [4] [%]	remaining activity at 1 µM [5] [%]	remaining activity at 100 µM [5] [%]
COc1ccc2sc(-c3cncc(N)c3)nc2c1 [compound 1, 5-(5-Methoxybenzo[d]thiazol-2-yl)pyridin-3-amine]	90	24	115	37	110	55	102	96	130	71										
COc1ccc2sc(-c3cncc(NC(C)=O)c3)nc2c1 [PST-001, N-(5-(5-Methoxybenzo[d]thiazol-2-yl)pyridin-3-yl)acetamide]											93	76	114	111	105	122	115	112	147	130
